Source: patent US4317768A, “Dihydropyridine derivatives as stabilizers for vinyl chloride polymers” (priority 1977, dated 1982)

How the values were obtained:
[1] = Static thermostability (GARDNER method), rigid PVC sheets, 210° C., 0.3 part stabilizer
Procedure: (§1) This study was carried out according to the GARDNER method, described in British Pat. No. 1,489,685.
(§2) The reference substance was 2-phenyl-indole, a well-known and widely used stabilizer.
(§3) The stabilizer (dihydropyridine or 2-phenyl-indole) and the other usual ingredients were mixed with powdered vinyl resins and the mixtures were calendered at a temperature of 160° C. to give rigid sheets.
(§4) The sheets were then heated in a thermostated oven (185° C. or 210° C.) for different intervals of time until incipient carbonization.
(§5) The coloration of the samples was compared to a standard scale of coloration, known as the GARDNER scale and was expressed in terms of the reference figures of the GARDNER scale.
(§6) This study was carried out with the following resin:
(§7) Polyvinyl chloride resin
(§8) SL 2016 is a solution of zinc-2-ethyl-hexanoate in a mixture of hydrocarbons boiling between 158° C. and 184° C.
The first trial was carried out at 210° C. with a resin containing 0.3 part by weight of stabilizer, the sheets being removed from the oven every three minutes over a period of 21 minutes.

[2] = Static thermostability (GARDNER method), rigid PVC sheets, 185° C., 0.3 part stabilizer
Procedure: as §1, §2, §3, §4, §5, §6, §7, §8
A second trial was performed at a temperature of 185° C., with a resin containing 0.3 part of stabilizer, the samples being removed from the oven every 6 minutes over a period of 24 minutes, then every 3 minutes until the 42nd minute (or until carbonization).

[3] = Static thermostability (GARDNER method), rigid PVC sheets, 185° C., equimolecular quantities; settings: 1.55×10^-3 mol
Procedure: as §1, §2, §3, §4, §5, §6, §7, §8
Finally, a trail was performed at 185° C., with resins containing equimolecular quantities of the dihydropyridines or of 2-phenyl-indole, namely 1.55×10^-3 mol. In this case too, the samples were removed from the oven every 6 minutes over a period of 24 minutes and then every 3 minutes until the 42nd minute (or until carbonization).

| Compound | coloration, GARDNER scale ([1]; 0 min) | coloration, GARDNER scale ([1]; 3 min) | coloration, GARDNER scale ([1]; 6 min) | coloration, GARDNER scale ([1]; 9 min) | coloration, GARDNER scale ([1]; 12 min) | coloration, GARDNER scale ([1]; 15 min) | coloration, GARDNER scale ([1]; 18 min) | coloration, GARDNER scale ([2]; 0 min) | coloration, GARDNER scale ([2]; 6 min) | coloration, GARDNER scale ([2]; 12 min) | coloration, GARDNER scale ([2]; 18 min) | coloration, GARDNER scale ([2]; 24 min) | coloration, GARDNER scale ([2]; 27 min) | coloration, GARDNER scale ([2]; 30 min) | coloration, GARDNER scale ([2]; 33 min) | coloration, GARDNER scale ([2]; 36 min) | coloration, GARDNER scale ([1]; 21 min) | also measured |
| --- | --- | --- | --- | --- | --- | --- | --- | --- | --- | --- | --- | --- | --- | --- | --- | --- | --- | --- |
| CC1=C(C(=O)OCc2ccccc2Cl)CC(C(=O)OCc2ccccc2Cl)=C(C)N1 [Compound 5, 2,6-Dimethyl-3,5-di-(2'-carbochloro-benzyloxy)-1,4-dihydropyridine] | 1 | 1 | 2 | 3 | 6 | 10.5 | Burnt | 1 | 1 | 2 | 9 | 11 | 11 | 13 | 14 | 14 |  | coloration of the resins, in words ([1]; 0 to 3 minutes): considerably less; coloration, GARDNER scale ([2]; 39 min): Burnt; coloration, GARDNER scale ([3]; 0 min): 1; coloration, GARDNER scale ([3]; 6 min): 1; coloration, GARDNER scale ([3]; 12 min): 1; coloration, GARDNER scale ([3]; 18 min): 5; coloration, GARDNER scale ([3]; 24 min): 10; coloration, GARDNER scale ([3]; 27 min): 11; coloration, GARDNER scale ([3]; 30 min): 13; coloration, GARDNER scale ([3]; 33 min): 14; coloration, GARDNER scale ([3]; 36 min): 15; coloration, GARDNER scale ([3]; 39 min): Burnt |
| CC1=C(C(=O)OCC=Cc2ccccc2)CC(C(=O)OCC=Cc2ccccc2)=C(C)N1 [Compound 22, 2,6-Dimethyl-3,5-dicarbocinnamyloxy-1,4-dihydropyridine] | 1 | 1 | 2 | 4 | 11 | Burnt |  |  |  |  |  |  |  |  |  |  |  |  |
| CCCCCCC1C(C(=O)OC)=C(C)NC(C)=C1C(=O)OC [Compound 8, 2,6-Dimethyl-3,5-dicarbomethoxy-4-hexyl-1,4-dihydropyridine] | 1 | 2 | 3 | 6 | 8 | 10.5 | 11 |  |  |  |  |  |  |  |  |  | Burnt |  |
| CC1=C(C(=O)OCCCl)CC(C(=O)OCCCl)=C(C)N1 [Compound 3, 2,6-Dimethyl-3,5-di-(2'-carbochloro-ethoxy)-1,4-dihydroyridine] | 1 | 1 | 3 | 4 | 5 | 10.5 | Burnt | 1 | 1 | 5 | 8 | 10 | 10.5 | 13 | 14 | 18 |  | thermostabilizing power compared to 2-phenyl-indole, in words ([1]; 210° C.): greatly superior to 2-phenyl-indole; coloration, GARDNER scale ([2]; 39 min): 18; coloration, GARDNER scale ([2]; 42 min): Burnt |
| CC1=C(C(=O)OCc2ccccc2C)CC(C(=O)OCc2ccccc2C)=C(C)N1 [Compound 6, 2,6-Dimethyl-3,5-di-(2'-carbomethyl-benzyloxy)-1,4-dihydropyridine] | 1 | 1 | 1.5 | 3 | 4 | 7 | Burnt | 1 | 1 | 2 | 9 | 11 | 11 | 13 | 14 | Burnt |  | coloration, GARDNER scale ([3]; 0 min): 1; coloration, GARDNER scale ([3]; 6 min): 1; coloration, GARDNER scale ([3]; 12 min): 2; coloration, GARDNER scale ([3]; 18 min): 4; coloration, GARDNER scale ([3]; 24 min): 10; coloration, GARDNER scale ([3]; 27 min): 13; coloration, GARDNER scale ([3]; 30 min): B. |
| CCCCCCCCCCCCCC1=C(C(=O)OC)CC(C(=O)OC)=C(CCCCCCCCCCCCC)N1 [Compound 20, 2,6-Ditridecyl-3,5-dicarbomethoxy-1,4-dihydropyridine] | 1 | 1 | 1.5 | 2 | 2 | 2.5 | 4 |  |  |  |  |  |  |  |  |  | 7 |  |
| COC(=O)C1=C(c2ccccc2)NC(c2ccccc2)=C(C(=O)OC)C1 [Compound 18, 2,6-Diphenyl-3,5-dicarbomethoxy-1,4-dihydropyridine] | 1 | 1 | 2 | 2 | 2 | 3 | 6 |  |  |  |  |  |  |  |  |  | Burnt |  |
